Test results: US20100204108A1, “USE OF NEUROTROPHIC FACTOR FOR RETINAL CHOLINERGIC NEURONS (NFRCN) AND CHORIONIC GONADOTROPIN-BETA (109-145) AS THERAPEUTIC AGENTS” (priority 2007, published 2010)
Ends that are not written are not given here.

Assays:
[1] = system: HIV-1IIIB; conditions: positive controls
[2] = system: LPS-induced TNF-alpha production in human macrophages; assay: TNF alpha production assay (LPS-stimulated macrophages, ELISA); format: cell-based; conditions: 10 micrograms per ml; LPS 200 ng/ml; overnight
Excerpt: Not stimulated macrophages served as negative background control.

[3] = system: hepatitis B virus (HBV) ayw strain; assay: HBV assay in HepG2-2.2.15 cells, secreted HBV DNA by TaqMan PCR; format: cell-based; conditions: 10 micrograms per ml, six days, HBV DNA in supernatant
[4] = system: HCMV strain AD169; assay: HCMV plaque formation assay in MRC-5 cells; conditions: 10 micrograms per ml, 7-10 days
[5] = system: Th1/Th2 cytokines in spleen cells; assay: Th1/Th2 cytokine profiling assay (Ovalbumin-restimulated spleen cells, CBA kit); format: cell-based, Balb/c mice; conditions: 10 micrograms per ml; Ovalbumin restimulation; 72 hours
[6] = system: HUVEC; assay: Endothelial tube formation assay; format: cell-based, human; conditions: 10 micrograms per ml, 20 hours
Excerpt: Positive control was vehicle only.

Question: `Cc1cn([C@H]2C[C@H](N=[N+]=[N-])[C@@H](CO)O2)c(=O)[nH]c1=O` [AZT] was tested. Which “antiviral activity of positive control compounds (HIV-1)” value [1] did it give?
Answer: expected levels of antiviral activity

Question: Which results are given for “Tyr-Leu-Leu-Pro-Ala-Gln-Val-Asn-Ile-Asp-OH (YLLPAQVNID-OH) [peptide 1]”?
Answer: induction of the LPS-induced TNF-alpha production in human macrophages [2]: 18%; inhibition of HBV replication as compared to the virus control infection [3]: 65.0%; inhibition of HCMV plaque formation as compared to the virus control [4]: did not inhibit; IFNγ spleen cells; TH1 response (% of control) [5]: 135.2 % of control; IL-2 spleen cells (% of control) [5]: 215.4 % of control; IL-4 spleen cells; TH2 response (% of control) [5]: 138.4 % of control; IL-5 spleen cells; TH2 response (% of control) [5]: 111.1 % of control; TNF-a spleen cells; TH1 response (% of control) [5]: 165.0 % of control; inhibition of the tube formation of endothelial cells [6]: 25%

Question: Which “antiviral activity of positive control compounds (HIV-1)” value [1] does the source give for `CC(C)(C)NC(=O)[C@@H]1CN(Cc2cccnc2)CCN1C[C@@H](O)C[C@@H](Cc1ccccc1)C(=O)N[C@H]1c2ccccc2C[C@H]1O` [indinavir] here?
Answer: expected levels of antiviral activity
